For series [1], the system named is other CYP enzymes. In words: Incubation with the other recombinant CYP isoforms. The class given is in vitro ADME, human. The note with it: 1 μM MPZ, 60 min. The source says:
All other procedures were the same as described previously.

Series [2] concerns microsomal FMOs in HLM. In words: Incubation with HLM for FMO (pH 8.4, methimazole, heat). The class given is in vitro ADME, human. The settings on record: 1 and 10 μM MPZ, NADPH, with and without methimazole, heat-pretreated control. As for the experimental part:
MPZ, at 1.0 and 10.0 μM, was incubated with HLM or HKM to determine the contribution of microsomal FMOs on the metabolism of MPZ.
A reaction mixture containing KPi buffer (pH 8.4), HLM or HKM (0.5 mg/mL protein) and MPZ (1.0 and 10.0 μM) was pre-incubated for 3-5 minutes at 37° C. The reaction was initiated by the addition of NADPH into the reaction mixture. Reaction was conducted for 0 and 60 min. A positive control (benzydamine, 100 μM) was incubated in duplicate for 0 and 20 minutes. Parallel incubation was conducted by adding 1 mM methimazole, a non-specific FMO inhibitor, under identical conditions. Heat inactivated microsomes (50° C. for at least 5 minutes) was incubated under identical conditions negative control. All other procedures were the same as described previously.

The target in series [3] is T1, human liver cytosolic aldehyde oxidase (Homo sapiens, UniProt Q06278).
T1 construct: tissue Xenotech; host or cells: pooled human liver cytosol
T1 sequence (Q06278 1-1338): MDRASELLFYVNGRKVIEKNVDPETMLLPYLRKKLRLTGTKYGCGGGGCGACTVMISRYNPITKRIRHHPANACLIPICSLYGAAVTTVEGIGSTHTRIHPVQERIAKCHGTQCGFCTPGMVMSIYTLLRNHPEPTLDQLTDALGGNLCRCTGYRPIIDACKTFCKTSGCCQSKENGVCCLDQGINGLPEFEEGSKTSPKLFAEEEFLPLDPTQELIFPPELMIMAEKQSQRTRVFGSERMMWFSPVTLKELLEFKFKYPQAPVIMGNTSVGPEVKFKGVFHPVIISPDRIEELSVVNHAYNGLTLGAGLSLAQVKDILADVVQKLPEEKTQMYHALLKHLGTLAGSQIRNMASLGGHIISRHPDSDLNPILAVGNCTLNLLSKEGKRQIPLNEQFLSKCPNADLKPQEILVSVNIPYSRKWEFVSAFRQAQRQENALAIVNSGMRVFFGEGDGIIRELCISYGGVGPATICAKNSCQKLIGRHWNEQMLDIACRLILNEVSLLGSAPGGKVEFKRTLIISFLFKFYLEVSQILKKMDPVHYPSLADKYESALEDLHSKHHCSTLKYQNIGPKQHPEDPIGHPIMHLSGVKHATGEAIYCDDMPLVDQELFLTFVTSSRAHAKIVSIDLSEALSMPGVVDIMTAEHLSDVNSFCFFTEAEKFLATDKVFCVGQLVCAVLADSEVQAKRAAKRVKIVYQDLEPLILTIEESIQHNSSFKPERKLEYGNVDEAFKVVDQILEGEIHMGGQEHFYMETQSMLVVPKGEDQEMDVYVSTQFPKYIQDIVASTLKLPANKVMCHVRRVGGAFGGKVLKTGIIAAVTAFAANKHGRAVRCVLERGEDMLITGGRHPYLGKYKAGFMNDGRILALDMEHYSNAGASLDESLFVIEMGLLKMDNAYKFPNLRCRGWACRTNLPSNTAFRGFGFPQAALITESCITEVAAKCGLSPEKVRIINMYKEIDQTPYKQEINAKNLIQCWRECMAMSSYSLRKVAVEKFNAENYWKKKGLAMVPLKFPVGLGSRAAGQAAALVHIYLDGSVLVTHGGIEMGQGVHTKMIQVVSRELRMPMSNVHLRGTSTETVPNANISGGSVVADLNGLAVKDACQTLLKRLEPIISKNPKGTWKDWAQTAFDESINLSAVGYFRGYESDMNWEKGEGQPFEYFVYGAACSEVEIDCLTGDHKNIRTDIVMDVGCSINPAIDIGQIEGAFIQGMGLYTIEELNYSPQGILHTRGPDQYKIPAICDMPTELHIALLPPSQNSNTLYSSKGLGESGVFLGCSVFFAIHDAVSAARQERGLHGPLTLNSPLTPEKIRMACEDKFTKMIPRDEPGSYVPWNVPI
In words: Incubations with HLC fractions for AO activity. The class given is in vitro ADME. The note with it: HLC 1 mg/mL, 10 μM MPZ. How it is done:
The metabolism of MPZ was evaluated in the human liver cytosolic incubation. A metabolic incubation was performed with HLC (1 mg/mL protein) and 10 μM MPZ at 37° C. for on an orbital shaker for 60 min. […] Another set of incubation was also conducted 1 μM phthalazine, a known substrate for aldehyde oxidase as positive control, under identical conditions.

Molecules are shown by their SMILES.

As to `CS(=O)(=O)c1ccc2c(c1)N(CCCN1CCC(C(N)=O)CC1)c1ccccc1S2` [MPZ, metopimazine], the “contribution of other CYP enzymes to MPZ metabolism” value in series [1] is “None of the other CYP enzymes appeared to have significant contribution”.
For the compound `CS(=O)(=O)c1ccc2c(c1)N(CCCN1CCC(C(=O)O)CC1)c1ccccc1S2` [MPZA, metopimazine acid], in series [2], the “MPZA formation in HLM at pH 8.4” value is “Considerable formation of MPZA was observed with all conditions”. In series [3] (incubation time 0 min), the “Metopimazine Acid Formation, 100 μM Menadione” value was 0.00 nM and the “Metopimazine Acid Formation, No Menadione” value was determined as 0.00 nM. Further, in series [3] (incubation time 60 min), the “Metopimazine Acid Formation, 100 μM Menadione” value stood at 718.90 ± 21.40 nM and the “Metopimazine Acid Formation, No Menadione” value is on record as 1371.66 ± 70.93 nM.

For the origin of these results see patent publication US20240156832A1, “METHODS OF METABOLIZING METOPIMAZINE AND ITS SALTS” (Neurogastrx, Inc., priority 2020, published 2024).
